Molecular target: T1, wild type AXL (wtAXL) receptor tyrosine kinase (Homo sapiens, UniProt P30530)
T1 construct: WtAXL cDNA was cloned into vector pLXSN(ESK) and transfected into Phoenix E packaging cells; expressed in transfected cells; host or cells: NIH3T3 N7 (mouse fibroblasts), retrovirally infected, clone 22
T1 sequence (P30530 26-894): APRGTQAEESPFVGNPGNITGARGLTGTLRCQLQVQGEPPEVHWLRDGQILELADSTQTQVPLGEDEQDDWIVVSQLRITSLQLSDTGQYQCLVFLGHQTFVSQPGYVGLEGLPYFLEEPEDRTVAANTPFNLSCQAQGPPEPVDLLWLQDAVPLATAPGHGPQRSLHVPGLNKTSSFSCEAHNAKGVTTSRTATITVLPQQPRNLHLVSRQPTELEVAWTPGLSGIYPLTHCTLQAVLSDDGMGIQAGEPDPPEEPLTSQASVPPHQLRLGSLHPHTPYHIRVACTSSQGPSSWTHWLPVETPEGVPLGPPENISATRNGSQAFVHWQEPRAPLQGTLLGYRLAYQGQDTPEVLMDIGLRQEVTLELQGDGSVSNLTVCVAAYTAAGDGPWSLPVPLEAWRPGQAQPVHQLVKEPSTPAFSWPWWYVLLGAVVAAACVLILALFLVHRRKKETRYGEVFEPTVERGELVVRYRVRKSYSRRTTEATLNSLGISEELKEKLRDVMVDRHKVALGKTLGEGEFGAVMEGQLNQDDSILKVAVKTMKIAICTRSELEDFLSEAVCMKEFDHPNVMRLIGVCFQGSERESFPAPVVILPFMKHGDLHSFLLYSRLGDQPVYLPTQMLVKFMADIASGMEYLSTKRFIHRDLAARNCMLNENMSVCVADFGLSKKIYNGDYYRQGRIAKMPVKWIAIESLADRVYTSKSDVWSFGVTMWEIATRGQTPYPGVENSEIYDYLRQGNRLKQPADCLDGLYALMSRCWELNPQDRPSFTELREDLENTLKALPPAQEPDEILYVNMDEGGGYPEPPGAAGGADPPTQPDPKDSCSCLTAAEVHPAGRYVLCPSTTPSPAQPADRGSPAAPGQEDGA
Test: NIH-3T3-AXL cellular kinase assay (pY-AXL-ELISA)
Type: cell-based
Conditions: NIH-3T3-AXL (clone 22) cells, serum depleted, compounds 1 h; Table Ia
How it was run: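 Phospho-AXL was quantified by ELISA in lysates (4G10-biotin, streptavidin-AP, AttoPhos, 430/560 nm read at 90 min). The cells were monoclonal NIH3T3 lines stably transduced with human wtAXL, exposed to serial compound dilutions for 1 h before lysis.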

Structure (SMILES) | IC50
COc1cc2c(Oc3ccc(NS(=O)(=O)c4c(Cl)cccc4Cl)cc3F)ccnc2cc1OCCCN1CCCCC1 [Example 6, 2,6-Dichloro-N-{3-fluoro-4-[6-methoxy-7-(3-piperidin-1-yl-propoxy)-quinolin-4-yloxy]-phenyl}-benzenesulfonamide] | < 500 nM
COc1cc2c(Oc3ccc(NS(=O)(=O)c4c(F)cccc4F)cc3F)ccnc2cc1OCCCN1CCCCC1 [Example 11, 2,6-Difluoro-N-{3-fluoro-4-[6-methoxy-7-(3-piperidin-1-yl-propoxy)-quinolin-4-yloxy]-phenyl}-benzenesulfonamide] | < 500 nM
COc1cc2c(Oc3ccc(NS(=O)(=O)c4ccccc4[N+](=O)[O-])cc3F)ccnc2cc1OCCCN1CCCC(C)C1 (stereo not shown) [Example 40, N-(3-Fluoro-4-{6-methoxy-7-[3-(3-methyl-piperidin-1-yl)-propoxy]-quinolin-4-yloxy}-phenyl)-2-nitro-benzenesulfonamide] | < 500 nM
COc1cc2c(Oc3ccc(NS(=O)(=O)c4ccccc4OC(F)(F)F)cc3F)ccnc2cc1OCCCN1CCCC(C)C1 (stereo not shown) [Example 45, N-(3-Fluoro-4-{6-methoxy-7-[3-(3-methyl-piperidin-1-yl)-propoxy]-quinolin-4-yloxy}-phenyl)-2-trifluoromethoxy-benzenesulfonamide] | < 500 nM
COc1cc2c(Oc3ccc(NS(=O)(=O)c4ccc(F)c(F)c4F)cc3F)ccnc2cc1OCCCN1CCCC(C)C1 (stereo not shown) [Example 49, 2,3,4-Trifluoro-N-(3-fluoro-4-{6-methoxy-7-[3-(3-methyl-piperidin-1-yl)-propoxy]-quinolin-4-yloxy}-phenyl)-benzenesulfonamide] | < 500 nM
COc1cc2c(Oc3ccc(NS(=O)(=O)c4c(Cl)cccc4Cl)cc3F)ccnc2cc1OCCCN1CCCC(C)C1 (stereo not shown) [Example 51, 2,6-Dichloro-N-(3-fluoro-4-{6-methoxy-7-[3-(3-methyl-piperidin-1-yl)-propoxy]-quinolin-4-yloxy}-phenyl)-benzenesulfonamide] | < 500 nM
COc1cc2c(Oc3ccc(NS(=O)(=O)c4cccc(Cl)c4F)cc3F)ccnc2cc1OCCCN1CCCC(C)C1 (stereo not shown) [Example 54, 3-Chloro-2-fluoro-N-(3-fluoro-4-{6-methoxy-7-[3-(3-methyl-piperidin-1-yl)-propoxy]-quinolin-4-yloxy}-phenyl)-benzenesulfonamide] | < 500 nM
COC(=O)c1sccc1S(=O)(=O)Nc1ccc(Oc2ccnc3cc(OCCCN4CCCC(C)C4)c(OC)cc23)c(F)c1 (stereo not shown) [Example 66, 3-(3-Fluoro-4-{6-methoxy-7-[3-(3-methyl-piperidin-1-yl)-propoxy]-quinolin-4-yloxy}-phenylsulfamoyl)-thiophene-2-carboxylic acid methyl ester] | < 500 nM
COc1cc2c(Oc3ccc(NS(=O)(=O)c4ccccc4OC(F)(F)F)cc3F)ccnc2cc1OCCCN1CCCCC1 [Example 78, N-{3-Fluoro-4-[6-methoxy-7-(3-piperidin-1-yl-propoxy)-quinolin-4-yloxy]-phenyl}-2-trifluoromethoxy-benzenesulfonamide] | < 500 nM
COc1cc2c(Oc3ccc(NS(=O)(=O)c4c(Cl)cccc4Cl)cc3F)ccnc2cc1OCCN1CCOCC1 [Example 104, 2,6-Dichloro-N-{3-fluoro-4-[6-methoxy-7-(2-morpholin-4-yl-ethoxy)-quinolin-4-yloxy]-phenyl}-benzenesulfonamide] | < 500 nM
COc1cc2c(Oc3ccc(NS(=O)(=O)c4c(F)cccc4F)cc3F)ccnc2cc1OCCCN1CCN(C)CC1 [Example 110, 2,6-Difluoro-N-(3-fluoro-4-{6-methoxy-7-[3-(4-methyl-piperazin-1-yl)-propoxy]-quinolin-4-yloxy}-phenyl)-benzenesulfonamide] | < 500 nM
COc1cc2c(Oc3ccc(NS(=O)(=O)c4cc(F)ccc4F)cc3Cl)ccnc2cc1OCCCN1CCN(C)CC1 [Example 112, N-(3-Chloro-4-{6-methoxy-7-[3-(4-methyl-piperazin-1-yl)-propoxy]-quinolin-4-yloxy}-phenyl)-2,5-difluoro-benzenesulfonamide] | < 500 nM
COc1cc2c(Oc3ccc(NS(=O)(=O)c4c(Cl)cccc4Cl)cc3Cl)ccnc2cc1OCCCN1CCN(C)CC1 [Example 119, 2,6-Dichloro-N-(3-chloro-4-{6-methoxy-7-[3-(4-methyl-piperazin-1-yl)-propoxy]-quinolin-4-yloxy}-phenyl)-benzenesulfonamide] | < 500 nM
COC(=O)c1sccc1S(=O)(=O)Nc1ccc(Oc2ccnc3cc(OCCCN4CCCCC4)c(OC)cc23)c(F)c1 [Example 155, 3-{3-Fluoro-4-[6-methoxy-7-(3-piperidin-1-yl-propoxy)-quinolin-4-yloxy]-phenylsulfamoyl}-thiophene-2-carboxylic acid methyl ester] | < 500 nM
COC(=O)c1sccc1S(=O)(=O)Nc1ccc(Oc2ccnc3cc(OCCCN4CCC(C)CC4)c(OC)cc23)c(F)c1 [Example 156, 3-(3-Fluoro-4-{6-methoxy-7-[3-(4-methyl-piperidin-1-yl)-propoxy]-quinolin-4-yloxy}-phenylsulfamoyl)-thiophene-2-carboxylic acid methyl ester] | < 500 nM
COC(=O)c1sccc1S(=O)(=O)Nc1ccc(Oc2ccnc3cc(OCCCN4CCOCC4)c(OC)cc23)c(F)c1 [Example 157, 3-{3-Fluoro-4-[6-methoxy-7-(3-morpholin-4-yl-propoxy)-quinolin-4-yloxy]-phenylsulfamoyl}-thiophene-2-carboxylic acid methyl ester] | < 500 nM
COC(=O)c1sccc1S(=O)(=O)Nc1ccc(Oc2ccnc3cc(OCCCN4CCN(C)CC4)c(OC)cc23)c(F)c1 [Example 158, 3-(3-Fluoro-4-{6-methoxy-7-[3-(4-methyl-piperazin-1-yl)-propoxy]-quinolin-4-yloxy}-phenylsulfamoyl)-thiophene-2-carboxylic acid methyl ester] | < 500 nM
COc1cc2c(Oc3ccc(NS(=O)(=O)c4c(F)cccc4F)cc3F)ccnc2cc1OCCCN(C)C [Example 178, N-{4-[7-(3-Dimethylamino-propoxy)-6-methoxy-quinolin-4-yloxy]-3-fluoro-phenyl}-2,6-difluoro-benzenesulfonamide] | < 500 nM
COc1cc2c(Oc3ccc(NS(=O)(=O)c4ccccc4OC(F)(F)F)cc3F)ccnc2cc1OCCCN(C)C [Example 179, N-{4-[7-(3-Dimethylamino-propoxy)-6-methoxy-quinolin-4-yloxy]-3-fluoro-phenyl}-2-trifluoromethoxy-benzenesulfonamide] | < 500 nM
COc1cc2c(Oc3ccc(NS(=O)(=O)c4c(Cl)cccc4Cl)cc3F)ccnc2cc1OCCCN(C)C [Example 181, 2,6-Dichloro-N-{4-[7-(3-dimethylamino-propoxy)-6-methoxy-quinolin-4-yloxy]-3-fluoro-phenyl}-benzenesulfonamide] | < 500 nM
COC(=O)c1sccc1S(=O)(=O)Nc1ccc(Oc2ccnc3cc(OCCCN(C)C)c(OC)cc23)c(F)c1 [Example 184, 3-{4-[7-(3-Dimethylamino-propoxy)-6-methoxy-quinolin-4-yloxy]-3-fluoro-phenylsulfamoyl}-thiophene-2-carboxylic acid methyl ester] | < 500 nM
COc1cc2c(Oc3c(Cl)cc(NS(=O)(=O)c4c(F)cccc4F)cc3Cl)ccnc2cc1OCCCN1CCC(C)CC1 [Example 209, N-(3,5-Dichloro-4-{6-methoxy-7-[3-(4-methyl-piperidin-1-yl)-propoxy]-quinolin-4-yloxy}-phenyl)-2,6-difluoro-benzenesulfonamide] | < 500 nM
